Measured values taken from patent US12084462B2, “Spiro bicyclic inhibitors of menin-MLL interaction” (Janssen Pharmaceutica NV, priority 2016, dated 2024).
Where “and” joins values, the source holds several entries; their conditions need not be identical. Equal entries are not always repeated. Where two headings read alike, the source gives them in different places.

How the values were obtained:
[1] = system: MOLM14; experiment: Proliferation assay (spheroid assay) MOLM14; assay type: cell-based, human
Procedure: (§1) The anti-proliferative effect of menin/MLL protein/protein interaction inhibitor test compounds was assessed in human leukemia cell lines. The cell lines MV-4-11 and MOLM14 harbor MLL translocations and express the MLL fusion proteins MLL-AF4 and MLL-AF9, respectively, as well as the wildtype protein from the second allele. […] K562 and KG1 were used as a control cell lines containing two MLL wildtype alleles in order to exclude compounds that display general cytotoxic effects.
(§2) MV-4-11 and MOLM14 were cultured in RPMI-1640 (Sigma Aldrich) supplemented with 10% fetal bovine serum (HyClone), 2 mM L-glutamine (Sigma Aldrich) and 50 μg/ml gentamycin (Gibco). K562 were propagated in RPMI-1640 (Sigma Aldrich) supplemented with 20% fetal bovine serum (HyClone), 2 mM L-glutamine (Sigma Aldrich) and 50 μg/ml gentamycin (Gibco). KG1 were cultured in Iscove's MDM (Gibco) supplemented with 20% fetal bovine serum (HyClone), 2 mM L-glutamine (Sigma Aldrich) and 50 μg/ml gentamycin (Gibco).
(§3) In order to assess the anti-proliferative effects, 1,500 MV-4-11, 300 MOLM14, 750 K562 or 1,300 KG1 cells were seeded in 200 μl media per well in 96-well round bottom, ultra-low attachment plates (Costar, catalogue number 7007). Cell seeding numbers were chosen based on growth curves to ensure linear growth throughout the experiment. Test compounds were added at different concentrations and the DMSO content was normalized to 0.3%. Cells were incubated for 8 d at 37° C. and 5% CO2. Spheroid like growth was monitored in real-time by live-cell imaging (IncuCyteZOOM, Essenbio, 4× objective) acquiring one image every four hours for 8 d. Confluence (%) as a measure of spheroid size was determined using an integrated analysis tool.
(§4) In order to determine the cumulative effect of the test compounds over time, the area under the curve (AUC) in a plot of confluence against time was calculated. Confluence at the beginning of the experiment (t=0) was used as baseline for the AUC calculation.
(§5) Absolute IC50 values were calculated according to the following procedure: % Control=(AUC sample/AUC control)*100 AUC control=mean AUC of control values (cells without compound/DMSO as vehicle control)
(§6) A non-linear curve fit was applied using the least squares (ordinary) fit method to the plot of % control versus compound concentration. Based on this, the absolute IC50 value (half maximal inhibitory concentration of the test compound causing an anti-proliferative effect of 50% relative to the vehicle control) was calculated.

[2] = biological target: T1, menin (Homo sapiens, UniProt O00255, T541A); experiment: Menin/MLL fluorescence polarization (FP) assay; assay type: binding
T1 sequence (O00255 with tags, fused parts or gaps T541A): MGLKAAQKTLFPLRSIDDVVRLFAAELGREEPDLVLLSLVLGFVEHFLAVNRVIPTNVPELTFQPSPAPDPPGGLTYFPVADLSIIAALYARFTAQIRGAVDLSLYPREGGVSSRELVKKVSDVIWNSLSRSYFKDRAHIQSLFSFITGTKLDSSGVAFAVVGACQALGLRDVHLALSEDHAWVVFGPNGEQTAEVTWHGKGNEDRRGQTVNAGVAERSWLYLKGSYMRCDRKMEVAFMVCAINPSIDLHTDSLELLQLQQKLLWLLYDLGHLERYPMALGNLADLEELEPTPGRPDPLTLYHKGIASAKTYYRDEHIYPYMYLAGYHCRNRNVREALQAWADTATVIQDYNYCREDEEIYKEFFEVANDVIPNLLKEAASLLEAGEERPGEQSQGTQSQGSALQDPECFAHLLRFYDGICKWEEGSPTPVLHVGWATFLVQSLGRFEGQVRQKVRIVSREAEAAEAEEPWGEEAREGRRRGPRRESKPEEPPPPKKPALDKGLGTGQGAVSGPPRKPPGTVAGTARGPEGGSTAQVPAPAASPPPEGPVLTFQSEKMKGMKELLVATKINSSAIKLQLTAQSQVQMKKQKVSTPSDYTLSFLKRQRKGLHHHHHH
Procedure: 1) Menin/MLL Fluorescence Polarization Assay
To a non-surface binding, black 384-well microtiter plate was added 50 nL 160× test compound in DMSO and 4 μL 2× menin in assay buffer (40 mM Tris·HCl, pH 7.5, 50 mM NaCl, 1 mM DTT and 0.001% Tween 20). After incubation of test compound and menin for 10 min at ambient temperature, 4 μL 2×FITC-MBM1 peptide (FITC-β-alanine-SARWRFPARPGT-NH2 (SEQ ID NO: 2)) in assay buffer was added, the microtiter plate centrifuged at 1000 rpm for 1 min and the assay mixtures incubated for 15 min at ambient temperature. The relative amount of menin·FITC-MBM1 complex present in an assay mixture is determined by measuring the fluorescence polarization (FP) of the FITC label with a BMG Pherastar plate reader (ex. 485 nm/em. 520 nm) at ambient temperature. The final concentrations of reagents in the binding assay are 100 nM menin, 5 nM FITC-MBM1 peptide and 0.625% DMSO in assay buffer. Dose-response titrations of test compounds are conducted using an 11 point, three-fold serial dilution scheme, starting at 31 μM.
Compound potencies were determined by first calculating % inhibition at each compound concentration according to equation 1: % inhibition=((HC−LC)−(FP^compound−LC))/(HC−LC))*100 (Eqn 1)
Where LC and HC are the FP values of the assay in the presence or absence of a saturating concentration of a compound that competes with FITC-MBM1 for binding to menin, and FP^compound is the measured FP value in the presence of the test compound. HC and LC FP values represent an average of at least 16 replicates per plate. […] 2) Proliferation Assay

[3] = system: K562; experiment: Proliferation assay (spheroid assay) K562, control cell line; assay type: cell-based; details: Homo sapiens
Procedure: as §1, §2, §3, §4, §5, §6

[4] = system: MV-4-11; experiment: Proliferation assay (spheroid assay) MV-4-11; assay type: cell-based, human
Procedure: as §1, §2, §3, §4, §5, §6

[5] = system: KG1; experiment: Proliferation assay (spheroid assay) KG1, control cell line; assay type: cell-based; details: Homo sapiens, KG-1; KG1 control cell line; averaged values; read-out: Spheroid assay KG1 (IC50 (μM))
Procedure: as §1, §2, §3, §4, §5, §6

[6] = Homo sapiens, MOLM-14, MOLM14, averaged values, read-out: Spheroid assay MOLM14 (IC50 (μM))
[7] = averaged values over all measurements, read-out: Menin FP assay (IC50 (μM))
[8] = K562 control cell line, averaged values, read-out: Spheroid assay K562 (IC50 (μM))
[9] = Homo sapiens, MV4-11, MV-4-11, averaged values, read-out: Spheroid assay MV-4-11 (IC50 (μM))
[10] = MOLM14 (MLL-AF9), 8 d, absolute IC50 from AUC of confluence, individual measurements (not averaged), read-out: (2) Spheroid assay MOLM14 (IC50 (μM))
[11] = 100 nM menin, 5 nM FITC-MBM1 peptide, individual measurements (not averaged), read-out: (1) Menin FP assay (IC50 (μM))
[12] = 192 h, K562 (MLL wildtype control), 8 d, absolute IC50 from AUC of confluence, individual measurements (not averaged), read-out: (2) Spheroid assay K562 (IC50 (μM))
[13] = MV-4-11 (MLL-AF4), 8 d, absolute IC50 from AUC of confluence, individual measurements (not averaged), read-out: (2) Spheroid assay MV-4-11 (IC50 (μM))

SMILES | IC50 [1, 6] [µM] | IC50 [2, 7] [µM] | IC50 [3, 8] [µM] | IC50 [4, 9] [µM] | IC50 ([1]; Homo sapiens, MOLM-14, 192 h, MOLM14 (MLL-AF9), 8 d, absolute IC50 from AUC of confluence, individual measurements (not averaged), read-out: (2) Spheroid assay MOLM14 (IC50 (μM))) [µM] | IC50 [1, 10] | IC50 [2, 11] [µM] | IC50 [3, 12] [µM] | IC50 [4, 13] | IC50 [5] [µM]
FC(F)(F)Cc1cc2c(N3CCC4(CN(Cc5cn6ccccc6n5)C4)C3)ncnc2s1 [Compound 5] | 30.6 | 0.67 | > 15 | 6.4 | – | – | – | – | – | –
FC(F)(F)Cc1cc2c(N3CC4(CCN(Cc5ccccc5)C4)C3)ncnc2s1 [Compound 16] | – | – | – | – | 9.3 | 8.7 µM | 0.134 | > 15 | 4.7 µM and > 15 µM | –
CC(C)C(N1CC2(CCN(c3ncnc4sc(CC(F)(F)F)cc34)C2)C1)C1(F)CNC1 (centres unmarked) [Compound 269] | 4.6 | – | – | 0.67 | – | – | – | – | – | > 15
FC(F)(F)Cc1cc2c(N3CCC4(CN(Cc5ccccc5)C4)C3)ncnc2s1 [Compound 1] | 4.6 | 0.056 | > 15 | 3.7 | – | – | – | – | – | –
FC(F)(F)Cc1cc2c(N3CCC[C@]4(CCN(Cc5ccccc5)C4)C3)ncnc2s1 (single isomer, unassigned) [Compound 21a] | 12.1 | 0.49 | > 15 | 6.9 | – | – | – | – | – | –
CC(C)C(Cc1ccccc1)N1CC2(CCN(c3ncnc4sc(CC(F)(F)F)cc34)C2)C1 (centres unmarked) [Compound 182] | 1.9 | – | – | 0.78 | – | – | – | – | – | > 15
FC(F)(F)Cc1cc2c(N3CCC4(CN(CC5CC6(CCC6)C5)C4)C3)ncnc2s1 [Compound 22] | 2 | 0.069 | > 15 | 0.55 | – | – | – | – | – | –
CC(C)[C@@H](c1cn[nH]c1)N1CC2(CCN(c3ncnc4sc(CC(F)(F)F)cc34)C2)C1 [Compound 245] | 2 | – | – | 0.32 | – | – | – | – | – | > 15
FC(F)(F)Cc1cc2c(N3CCC4(CN(Cc5cnccn5)C4)C3)ncnc2s1 [Compound 12] | > 15 | 0.63 | > 15 | > 15 | – | – | – | – | – | –
C[C@H]1CN[C@H](C(=O)N2CC3(C2)CN(c2ncnc4sc(CC(F)(F)F)cc24)C3)C1 [Compound 105] | 3.4 | – | > 15 | 0.67 | – | – | – | – | – | –
O=C([C@@H]1CC2(CC2)CN1)N1CC2(CCN(c3ncnc4sc(CC(F)(F)F)cc34)C2)C1 [Compound 86] | 11.3 | 0.092 | > 15 | 2.6 | – | – | – | – | – | –
CC(C)CN1CC2(CCN(c3ncnc4sc(CC(F)(F)F)cc34)C2)C1 [Compound 13] | 4.2 | 0.042 | > 15 | 0.73 | – | – | – | – | – | –
FC(F)(F)Cc1cc2c(N3CCC4(CCN(Cc5ccccc5)C4)CC3)ncnc2s1 [Compound 3] | 5.6 | 0.1 | ~15 | 3.8 | – | – | – | – | – | –
CC(C)[C@@H](c1cnn(C)c1)N1CC[C@]2(CCN(c3ncnc4sc(CC(F)(F)F)cc34)C2)C1 (single isomer, unassigned) [Compound 189] | – | – | – | 0.92 | – | – | – | – | – | > 15
FC(F)(F)Cc1cc2c(N3CCC4(CN(Cc5ccnc(Cl)n5)C4)C3)ncnc2s1 [Compound 15] | > 15 | 0.57 | > 15 | 14 | – | – | – | – | – | –
FC(F)(F)Cc1cc2c(N3CCC4(CN(Cc5ccc6nccn6c5)C4)C3)ncnc2s1 [Compound 6] | 10.1 | 0.24 | > 15 | 2.4 | – | – | – | – | – | –
O=C([C@@H]1CC2(CC2)CN1)N1CC2(C1)CN(c1ncnc3sc(CC(F)(F)F)cc13)C2 [Compound 87] | – | – | – | – | – | 8 µM and 2.8 µM and 4.6 µM | 0.048 | > 15 | 4.1 µM and 0.63 µM and 0.58 µM and 0.68 µM and 0.52 µM | –
FC(F)(F)Cc1cc2c(N3CCCC4(CCN(Cc5ccccc5)C4)C3)ncnc2s1 (racemic) [Compound 18] | 7.7 | 0.14 | > 15 | 3.9 | – | – | – | – | – | –
NCCCOc1cccc(CN2CC3(CCN(c4ncnc5sc(CC(F)(F)F)cc45)C3)C2)c1 [Compound 37] | 3.1 | 0.17 | – | 1.5 | – | – | – | – | – | –
CC(CN1CC2(CCN(c3ncnc4sc(CC(F)(F)F)cc34)C2)C1)c1ccc(F)cc1 (centres unmarked) [Compound 317] | – | – | – | 0.77 | – | – | – | – | – | > 15
FC(F)(F)Cc1cc2c(N3CC[C@@]4(CCN(Cc5ccccc5)C4)C3)ncnc2s1 (single isomer, unassigned) [Compound 20a] | 5 | 0.076 | > 15 | 0.96 | – | – | – | – | – | –
CC(C)CN1CC[C@@]2(CCN(c3ncnc4sc(CC(F)(F)F)cc34)C2)C1 [Compound 184] | – | – | – | 0.97 | – | – | – | – | – | > 15
CC(C)[C@@H](C1CNC1)N1CC2(CCN(c3ncnc4sc(CC(F)(F)F)cc34)C2)C1 [Compound 200] | 10.3 | 0.11 | – | 3.4 | – | – | – | – | – | –
FC(F)(F)Cc1cc2c(N3CCC[C@@]4(CCN(Cc5ccccc5)C4)C3)ncnc2s1 (single isomer, unassigned) [Compound 21b] | 4.6 | 0.13 | > 15 | 4.2 | – | – | – | – | – | –
FC(F)(F)CCN1CC2(CCN(c3ncnc4sc(CC(F)(F)F)cc34)C2)C1 [Compound 2] | 14.6 | 0.39 | > 15 | 4.9 | – | – | – | – | – | –
FC(F)(F)Cc1cc2c(N3CC4(CC(OCc5ccccc5)C4)C3)ncnc2s1 [Compound 26] | > 15 | 0.16 | – | 10.4 | – | – | – | – | – | –
